# Source: PubChem BioAssay (NCI)
#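 Interpolation was linear, between the two tested concentrations surrounding the appropriate level; five concentrations were tested over 48 hours in 96-well plates. At the GI50, growth is halved. The concentration for full growth arrest is given as TGI.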
# Assays:
# Assay in all cases: NCI-60 cell line screen, 48 h
# 786-0 renal = system: 786-0 renal
# A549 NSCLC = system: A549 NSCLC
# CAKI-1 renal = system: CAKI-1 renal
# CCRF-CEM leukemia = system: CCRF-CEM leukemia
# COLO 205 colon = system: COLO 205 colon
# DU-145 prostate = system: DU-145 prostate
# EKVX NSCLC = system: EKVX NSCLC
# HCC-2998 colon = system: HCC-2998 colon
# HCT-15 colon = system: HCT-15 colon
# HL-60(TB) leukemia = system: HL-60(TB) leukemia
# HOP-62 NSCLC = system: HOP-62 NSCLC
# HT29 colon = system: HT29 colon
# IGROV1 ovarian = system: IGROV1 ovarian
# K-562 leukemia = system: K-562 leukemia
# KM12 colon = system: KM12 colon
# LOX IMVI melanoma = system: LOX IMVI melanoma
# M14 melanoma = system: M14 melanoma
# MALME-3M melanoma = system: MALME-3M melanoma
# MCF7 breast = system: MCF7 breast
# MDA-MB-231 breast = system: MDA-MB-231 breast
# MDA-N = system: MDA-N
# MOLT-4 leukemia = system: MOLT-4 leukemia
# NCI-H23 lung = system: NCI-H23 lung
# OVCAR-8 ovarian = system: OVCAR-8 ovarian
# PC-3 prostate = system: PC-3 prostate
# RPMI-8226 leukemia = system: RPMI-8226 leukemia
# RXF 393 renal = system: RXF 393 renal
# SF-268 CNS = system: SF-268 CNS
# SF-295 CNS = system: SF-295 CNS
# SK-MEL-28 melanoma = system: SK-MEL-28 melanoma
# SK-MEL-5 melanoma = system: SK-MEL-5 melanoma
# SK-OV-3 ovarian = system: SK-OV-3 ovarian
# SN12C renal = system: SN12C renal
# SNB-75 CNS = system: SNB-75 CNS
# SR leukemia = system: SR leukemia
# SW-620 colon = system: SW-620 colon
# T-47D breast = system: T-47D breast
# TK-10 renal = system: TK-10 renal
# UACC-257 melanoma = system: UACC-257 melanoma
# UACC-62 melanoma = system: UACC-62 melanoma
# A498 renal = system: A498 renal
# ACHN renal = system: ACHN renal
# BT-549 breast = system: BT-549 breast
# HCT-116 colon = system: HCT-116 colon
# HOP-92 NSCLC = system: HOP-92 NSCLC
# HS 578T breast = system: HS 578T breast
# MDA-MB-435 = system: MDA-MB-435
# NCI-H226 lung = system: NCI-H226 lung
# NCI-H460 lung = system: NCI-H460 lung
# NCI-H522 lung = system: NCI-H522 lung
# NCI/ADR-RES ovarian = system: NCI/ADR-RES ovarian
# OVCAR-3 ovarian = system: OVCAR-3 ovarian
# OVCAR-4 ovarian = system: OVCAR-4 ovarian
# OVCAR-5 ovarian = system: OVCAR-5 ovarian
# SF-539 CNS = system: SF-539 CNS
# SK-MEL-2 melanoma = system: SK-MEL-2 melanoma
# SNB-19 CNS = system: SNB-19 CNS
# U251 CNS = system: U251 CNS
# UO-31 renal = system: UO-31 renal
compound,measurement,setting,value
CN1CCN(c2cc3nsnc3c3nsnc23)CC1,TGI,786-0 renal,> 10 µM
same,TGI,A549 NSCLC,> 10 µM
same,TGI,CAKI-1 renal,> 10 µM
same,TGI,CCRF-CEM leukemia,> 10 µM
same,TGI,COLO 205 colon,> 10 µM
same,TGI,DU-145 prostate,> 10 µM
same,TGI,EKVX NSCLC,> 10 µM
same,TGI,HCC-2998 colon,> 10 µM
same,TGI,HCT-15 colon,> 10 µM
same,TGI,HL-60(TB) leukemia,> 10 µM
same,TGI,HOP-62 NSCLC,> 10 µM
same,TGI,HT29 colon,> 10 µM
same,TGI,IGROV1 ovarian,> 10 µM
same,TGI,K-562 leukemia,> 10 µM
same,TGI,KM12 colon,> 10 µM
same,TGI,LOX IMVI melanoma,> 10 µM
same,TGI,M14 melanoma,> 10 µM
same,TGI,MALME-3M melanoma,> 10 µM
same,TGI,MCF7 breast,> 10 µM
same,TGI,MDA-MB-231 breast,> 10 µM
same,TGI,MDA-N,> 10 µM
same,TGI,MOLT-4 leukemia,> 10 µM
same,TGI,NCI-H23 lung,> 10 µM
same,TGI,OVCAR-8 ovarian,> 10 µM
same,TGI,PC-3 prostate,> 10 µM
same,TGI,RPMI-8226 leukemia,> 10 µM
same,TGI,RXF 393 renal,> 10 µM
same,TGI,SF-268 CNS,> 10 µM
same,TGI,SF-295 CNS,> 10 µM
same,TGI,SK-MEL-28 melanoma,> 10 µM
same,TGI,SK-MEL-5 melanoma,> 10 µM
same,TGI,SK-OV-3 ovarian,> 10 µM
same,TGI,SN12C renal,> 10 µM
same,TGI,SNB-75 CNS,> 10 µM
same,TGI,SR leukemia,> 10 µM
same,TGI,SW-620 colon,> 10 µM
same,TGI,T-47D breast,> 10 µM
same,TGI,TK-10 renal,> 10 µM
same,TGI,UACC-257 melanoma,> 10 µM
same,TGI,UACC-62 melanoma,> 10 µM
CN(C)C(=O)O[C@H]1CN[C@H](C#Cc2cc3ncnc(Nc4ccc(OCc5cccc(F)c5)c(Cl)c4)c3s2)C1,GI50,786-0 renal,5.8 µM
same,TGI,786-0 renal,15 µM
same,GI50,A498 renal,4.19 µM
same,TGI,A498 renal,23.3 µM
same,GI50,A549 NSCLC,6.12 µM
same,TGI,A549 NSCLC,> 25 µM
same,GI50,ACHN renal,6.27 µM
same,TGI,ACHN renal,> 25 µM
same,GI50,BT-549 breast,4 µM
same,TGI,BT-549 breast,10.2 µM
same,GI50,CAKI-1 renal,4.06 µM
same,TGI,CAKI-1 renal,> 25 µM
same,GI50,CCRF-CEM leukemia,3.17 µM
same,TGI,CCRF-CEM leukemia,> 25 µM
same,GI50,COLO 205 colon,> 18.6 µM
same,TGI,COLO 205 colon,> 25 µM
same,GI50,DU-145 prostate,9.76 µM
same,TGI,DU-145 prostate,> 25 µM
same,GI50,EKVX NSCLC,1.77 µM
same,TGI,EKVX NSCLC,> 23 µM
same,GI50,HCC-2998 colon,11.3 µM
same,TGI,HCC-2998 colon,> 25 µM
same,GI50,HCT-116 colon,12.1 µM
same,TGI,HCT-116 colon,> 25 µM
same,GI50,HCT-15 colon,14.2 µM
same,TGI,HCT-15 colon,> 25 µM
same,GI50,HL-60(TB) leukemia,5.22 µM
same,TGI,HL-60(TB) leukemia,15 µM
same,GI50,HOP-62 NSCLC,> 23.4 µM
same,TGI,HOP-62 NSCLC,> 25 µM
same,GI50,HOP-92 NSCLC,1.77 µM
same,TGI,HOP-92 NSCLC,19.4 µM
same,GI50,HS 578T breast,10.4 µM
same,TGI,HS 578T breast,> 25 µM
same,GI50,HT29 colon,> 23 µM
same,TGI,HT29 colon,> 25 µM
same,GI50,IGROV1 ovarian,4.61 µM
same,TGI,IGROV1 ovarian,> 25 µM
same,GI50,K-562 leukemia,> 17.1 µM
same,TGI,K-562 leukemia,> 25 µM
same,GI50,KM12 colon,7.37 µM
same,TGI,KM12 colon,> 25 µM
same,GI50,LOX IMVI melanoma,> 23.2 µM
same,TGI,LOX IMVI melanoma,> 25 µM
same,GI50,M14 melanoma,> 25 µM
same,TGI,M14 melanoma,> 25 µM
same,GI50,MALME-3M melanoma,5.15 µM
same,TGI,MALME-3M melanoma,14.5 µM
same,GI50,MCF7 breast,14.6 µM
same,TGI,MCF7 breast,> 25 µM
same,GI50,MDA-MB-231 breast,4.14 µM
same,TGI,MDA-MB-231 breast,11.6 µM
same,GI50,MDA-MB-435,> 25 µM
same,TGI,MDA-MB-435,> 25 µM
same,GI50,MOLT-4 leukemia,4.53 µM
same,TGI,MOLT-4 leukemia,> 25 µM
same,GI50,NCI-H226 lung,5.49 µM
same,TGI,NCI-H226 lung,19.2 µM
same,GI50,NCI-H23 lung,> 25 µM
same,TGI,NCI-H23 lung,> 25 µM
same,GI50,NCI-H460 lung,7.25 µM
same,TGI,NCI-H460 lung,> 25 µM
same,GI50,NCI-H522 lung,0.977 µM
same,TGI,NCI-H522 lung,> 12.7 µM
same,GI50,NCI/ADR-RES ovarian,9.82 µM
same,TGI,NCI/ADR-RES ovarian,> 25 µM
same,GI50,OVCAR-3 ovarian,4.2 µM
same,TGI,OVCAR-3 ovarian,16.3 µM
same,GI50,OVCAR-4 ovarian,20.4 µM
same,TGI,OVCAR-4 ovarian,> 25 µM
same,GI50,OVCAR-5 ovarian,> 25 µM
same,TGI,OVCAR-5 ovarian,> 25 µM
same,GI50,OVCAR-8 ovarian,7.58 µM
same,TGI,OVCAR-8 ovarian,> 25 µM
same,GI50,PC-3 prostate,5.44 µM
same,TGI,PC-3 prostate,> 25 µM
same,GI50,RPMI-8226 leukemia,4.63 µM
same,TGI,RPMI-8226 leukemia,15.2 µM
same,GI50,RXF 393 renal,5.48 µM
same,TGI,RXF 393 renal,> 25 µM
same,GI50,SF-268 CNS,5.41 µM
same,TGI,SF-268 CNS,> 25 µM
same,GI50,SF-295 CNS,> 20 µM
same,TGI,SF-295 CNS,> 25 µM
same,GI50,SF-539 CNS,8.16 µM
same,TGI,SF-539 CNS,> 25 µM
same,GI50,SK-MEL-2 melanoma,> 25 µM
same,TGI,SK-MEL-2 melanoma,> 25 µM
same,GI50,SK-MEL-28 melanoma,> 25 µM
same,TGI,SK-MEL-28 melanoma,> 25 µM
same,GI50,SK-MEL-5 melanoma,16 µM
same,TGI,SK-MEL-5 melanoma,> 25 µM
same,GI50,SK-OV-3 ovarian,0.102 µM
same,TGI,SK-OV-3 ovarian,> 25 µM
same,GI50,SN12C renal,5.64 µM
same,TGI,SN12C renal,> 25 µM
same,GI50,SNB-19 CNS,> 19.7 µM
same,TGI,SNB-19 CNS,> 25 µM
same,GI50,SNB-75 CNS,9.66 µM
same,TGI,SNB-75 CNS,> 25 µM
same,GI50,SR leukemia,5.86 µM
same,TGI,SR leukemia,> 25 µM
same,GI50,SW-620 colon,> 25 µM
same,TGI,SW-620 colon,> 25 µM
same,GI50,T-47D breast,2.98 µM
same,TGI,T-47D breast,> 25 µM
same,GI50,TK-10 renal,0.765 µM
same,TGI,TK-10 renal,> 17.4 µM
same,GI50,U251 CNS,14.7 µM
same,TGI,U251 CNS,> 25 µM
same,GI50,UACC-257 melanoma,> 25 µM
same,TGI,UACC-257 melanoma,> 25 µM
same,GI50,UACC-62 melanoma,> 25 µM
same,TGI,UACC-62 melanoma,> 25 µM
same,GI50,UO-31 renal,4.04 µM
same,TGI,UO-31 renal,> 23.9 µM
